# ± gives the uncertainty stated by the source.
# What was measured:
# Details in all cases: 18 h
# HEK293T-Rex XBP1-RLuc [1] = experiment: maximal XBP1-RLuc activation from dose-response fit, relative to thapsigargin (% of thapsigargin); higher = stronger activation
# Description: (§1)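 Dose-response of hit compounds in HEK293T-Rex cells stably expressing ERSE-FLuc or XBP1-RLuc reporters, 18 hr treatment, 1536-well; luminescence normalised to 500 nM thapsigargin (100%) and DMSO (0%), fitted to give EC50 (M) and maximal activation; '>' marks EC50 above the top tested dose (~17 µM).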
# HEK293T-Rex XBP1-RLuc [2] = experiment: EC50 for XBP1-RLuc reporter activation
# Description: as §1
# HEK293T-Rex ERSE-FLuc [3] = experiment: EC50 for ERSE-FLuc reporter activation
# Description: as §1
# HEK293T-Rex ERSE-FLuc [4] = experiment: maximal ERSE-FLuc activation from dose-response fit, relative to thapsigargin (% of thapsigargin); higher = stronger activation
# Description: as §1
SMILES,maximal XBP1-RLuc activation (HEK293T-Rex XBP1-RLuc [1]),EC50 for XBP1-RLuc reporter activation (HEK293T-Rex XBP1-RLuc [2]),EC50 for ERSE-FLuc reporter activation (HEK293T-Rex ERSE-FLuc [3]),maximal ERSE-FLuc activation (HEK293T-Rex ERSE-FLuc [4])
CCOc1ccc(/C=C(\C#N)c2[nH]nc(N)c2C#N)cc1OCC,15.1 ± 1.6,> 16.9 µM,10 µM,59.8 ± 6.2
CCCNc1ccnc(N2CCc3ccccc3C2)n1,1.68 ± 0.28,> 17.7 µM,> 17.7 µM,12 ± 7.5
Cc1ccc(O)c(NC(=O)c2cc(-c3cccnc3)on2)c1,27.9 ± 4.9,> 16.9 µM,10.8 µM,94.4 ± 10

# From the supplement of paper PMC4954754
